# Measurements: patent publication US4792614A, “Substituted furans as inhibitors of 3-hydroxy-3-methylglutaryl-coa reductase” (American Home Products Corporation, priority 1987, dated 1988)
# Tests used:
# [1] = molecular target: T1, HMG--CoA reductase (Rattus norvegicus, UniProt P51639); experiment: Inhibition of HMG-CoA reductase (microsomal enzyme from rat liver, [14C] HMG-CoA reduction to mevalonolactone); assay type: biochemical; details: rat liver microsomal fraction; compound tested as the dihydroxy sodium carboxylate, 10^-3 to 10^-6 M; 20 minute incubation at 37° C.
# T1 construct: the microsomal fraction is isolated by differential ultracentrifugation to obtain HMG--CoA reductase enzyme; from tissue; host or cells: rat liver, microsomal fraction
# T1 sequence (P51639 1-887): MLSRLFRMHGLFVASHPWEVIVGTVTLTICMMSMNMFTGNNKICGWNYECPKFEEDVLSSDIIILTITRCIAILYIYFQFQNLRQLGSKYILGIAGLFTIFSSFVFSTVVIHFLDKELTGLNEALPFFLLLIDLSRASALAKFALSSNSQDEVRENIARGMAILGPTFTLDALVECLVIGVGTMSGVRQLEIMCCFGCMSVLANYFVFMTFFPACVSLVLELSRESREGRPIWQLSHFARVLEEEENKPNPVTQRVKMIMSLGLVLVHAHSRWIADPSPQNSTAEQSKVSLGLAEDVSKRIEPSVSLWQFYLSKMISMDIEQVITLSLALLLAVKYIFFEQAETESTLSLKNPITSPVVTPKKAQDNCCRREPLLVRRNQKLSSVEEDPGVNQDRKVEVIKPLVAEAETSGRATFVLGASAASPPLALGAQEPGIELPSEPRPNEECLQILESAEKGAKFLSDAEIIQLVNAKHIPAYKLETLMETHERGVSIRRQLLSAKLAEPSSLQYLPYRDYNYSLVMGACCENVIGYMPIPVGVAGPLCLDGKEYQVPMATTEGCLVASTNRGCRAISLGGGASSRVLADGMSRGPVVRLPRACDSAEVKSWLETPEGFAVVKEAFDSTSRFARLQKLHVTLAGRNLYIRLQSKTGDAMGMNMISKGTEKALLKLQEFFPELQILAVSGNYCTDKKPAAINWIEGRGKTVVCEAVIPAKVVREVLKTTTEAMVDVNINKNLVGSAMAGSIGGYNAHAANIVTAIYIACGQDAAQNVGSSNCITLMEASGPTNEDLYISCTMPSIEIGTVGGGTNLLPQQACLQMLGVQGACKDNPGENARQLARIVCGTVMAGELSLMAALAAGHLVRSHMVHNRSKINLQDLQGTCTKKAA
# Excerpt: The HMG--CoA reductase inhibitory properties of representative compounds of this invention were established by subjecting the compounds to the following standard experimental test procedure adapted from Rodwell et al., Adv. Lipid Res. 14 1, 1976; Endo et al., FEBS Letters 72 323, 1976; and Tanzawa et al., Biochemia et Biophysica Acta 488 97, 1977.
# Rat livers obtained from rats fed on a diet containing 3% cholestyramine and maintained on a reverse lighting regimen for three weeks are homogenized and the microsomal fraction is isolated by differential ultracentrifugation to obtain HMG--CoA reductase enzyme. To a preincubated (five minutes at 37° C.) solution of the compound being tested (as the dihydroxy sodium carboxylate in amounts from 10^-3 to 10^-6 M) in TEDKS100 pH (Tris®40 mM; EDTA 1 mM; dithiothreitol 5 mM; KCl 70 mM; sucrose 100 mM), 7.5 buffer or DMSO dissolved in an assay medium containing 20 μl of 2.5M KCl; 20 μl NADPH (reduced nicotinamide adenine dinucleotide phosphate) (7.5 mM); and 40 μl of labeled (RS) HMG--CoA (3--^14 C; […]; 200 μM) is added 10 μl of preincubated (five minutes at 37° C.) microsomal fraction to obtain a total volume of 125 μl. After a twenty minute incubation period at 37° C., reaction of the enzyme is terminated by addition of 10 μl of 70% HClO4. The assay tubes are then centrifuged for two minutes in a Beckman microfuge II.
# To 100 μl of the supernatant liquid is added 10 μl of non-radioactivemevalonic acid lactone (0.25M in 8 mM H2 SO4). An aliquot of the sample is eluted with 8 mM H2 SO4 through Bio Rad Aminex HPX-87H (HPLC; Hewlett-Packard Model 1084B) at a flow rate of 1 mL/minute. The effluent is fractionated, Hydrofluor® is added and radioactivity of the [^14 C] mevalonolactone produced by reduction of [^14 C] HMG--CoA determined with a scintillation counter.
# The percent inhibition of HMG--CoA reductase activity is obtained by comparison with a control assay devoid of the test compound. The inhibitory concentration (IC50) is calculated for the various test compounds.
# [2] = tested on: biosynthesis of cholesterol; details: background art; cited from earlier work
IC50 [1] [µM],SMILES,inhibition of the biosynthesis of cholesterol (in words) [2]
56,"COC(=O)C[C@@H](O)C[C@H](O)/C=C/c1occc1-c1ccc(F)cc1 [Example 3, (3S,5S,E)-7-[3-(4-Fluorophenyl)-2-Furanyl]-3,5-Dihydroxy-6-Heptenoic Acid Methyl Ester]",–
100,"COC(=O)C[C@@H](O)C[C@H](O)/C=C/c1ccc(-c2ccc(C(F)(F)F)cc2[N+](=O)[O-])o1 [Example 4, (3S,5S,E)-3,5-Dihydroxy-7-[5-[4-(Trifluoromethyl)-2-Nitrophenyl]-2-Furanyl]-6-Heptenoic Acid Methyl Ester]",–

# Continued, molecule first:
SMILES,IC50 [1] [µM],inhibition of the biosynthesis of cholesterol (in words) [2]
"COC(=O)C[C@@H](O)C[C@H](O)/C=C/c1oc(C)cc1-c1ccc(F)cc1 [Example 1, (3S,5S,E)-7-[5-Methyl-3-(4-Fluorophenyl)-2-Furanyl]-3,5-Dihydroxy-6-Heptenoic Acid Methyl Ester]",62,–
"COC(=O)C[C@@H](O)C[C@H](O)/C=C/c1oc(C)cc1-c1ccccc1 [Example 2, (3S,5S,E)-7-[5-Methyl-3-Phenyl-2-Furanyl]-3,5-Dihydroxy-6-Heptenoic Acid Methyl Ester]",99,–
CC[C@H](C)C(=O)O[C@H]1CCC=C2C=C[C@H](C)[C@H](CC[C@@H]3C[C@@H](O)CC(=O)O3)[C@H]21 [compactin],–,inhibited
CCC(C)C(=O)OC1CC(C)C=C2C=CC(C)C(CCC3CC(O)CC(=O)O3)C21 (stereo not drawn) [mevinolin],–,more effectively
